Measured values as given in publication PMC12970513, “Unsaturated Phosphorus Electrophiles to Probe Protein Tyrosine Phosphatases” (Angewandte Chemie (International Ed. in English), 2026).
*1 amine or outer side, *2 acyl side, *3 side chain or, on linkers, in order; H or OH if unused. Where a SMILES comes first, the peptide text is derived from it. [ ]: non-standard residue; d: D form. The star is where a group is joined. X1 = C#CP(=O)(O)Oc1ccc(C[C@H](N[*:1])C(=O)[*:2])cc1; X2 = C#CP(=O)(O)Nc1ccc(C[C@H](N[*:1])C(=O)[*:2])cc1; Biotin = O=C1N[C@H]2[C@H](CS[C@H]2CCCCC(=O)*)N1

Columns and labels:
[1] = Stability of bio-PN and bio-PO in HEK293T cell lysate by 31P NMR; assay type: in vitro ADME, human; conditions: HEK293T lysate (1 mg/mL), 1 mM peptide, room temperature
Description: Next, we assessed the stability of the phosphonamidic and phosphonic acid in aqueous buffers at pH 2, pH 3.5, pH 7.4, pH 8.5, and pH 11. Therefore, SM‐PN and SM‐PO were added in the corresponding buffers and monitored for 48 h at room temperature via ^31P‐NMR with triphenylphosphinoxide (TPPO) as an internal standard (Figure S2). […] Furthermore, we evaluated the stability of the peptide probes bio‐PN and bio‐PO in human lysate for subsequent experiments. These peptides were added in HEK293T cell lysate, and changes in stability were recorded for 18 h via ^31P‐NMR, in which inorganic phosphate served as an internal standard. […] Nonetheless, both peptides display sufficient stability for follow‐up studies.
A solution of 480 µL of HEK293T cell lysate (1 mg/mL) was supplemented with 60 µL of D2O. To this, 60 µL of bio-PN or bio-PO (10 mM stock in DMSO, final concentration 1 mM) were added right before the start of the measurement. The mixtures were transferred to NMR tubes and one-dimensional ^31P-NMR spectra were recorded for each sample at room temperature, in intervals of 2.5 h over the course of 18 h on a Bruker AV-III 600 spectrometer. For analysis, the spectra were Fourier-transformed, baseline corrected and the intensity of the ^31P-NMR signal was obtained by integration.

[2] = Lysate labeling by fluorescence gel scanning, HEK293T; parameters: species or system human; conditions: HEK293T lysate 2 mg/mL, 50 mM sodium succinate pH 6.0, 150 mM NaCl, 1 mM EDTA, 1 mM DTT, 1 h, R.T.
Description: Having identified suitable conditions, we aimed to compare our target‐specific peptide PO‐probe with a broad reactivity PTP probe in order to visualize the different reactivity patterns in human lysate. […] Using the previously reported buffer conditions, HEK293T cell lysate (50 mM sodium succinate, pH 6.0, 150 mM NaCl, 1 mM EDTA, 1 mM DTT) was incubated for 1 h with TMR‐BBP (100 µM).
For fluorescence gel scanning of TMR labeled probes samples resolved by SDS-PAGE and first visualized at a Bio-Rad imaging system equipped with a 532 nm laser for excitation. Afterwards, wherever applicable gels were stained with Coomassie brilliant blue.
For the comparison of the labeling pattern between TMR-PO and a general phosphatase probe (TMR-BBP) freshly lysed HEK293T cell lysate was adjusted to 2 mg/mL. […] For labeling with TMR-BBP cells were lysed in 50 mM sodium succinate buffer pH 6.0, 150 mM NaCl, 1 mM EDTA, and 1 mM DTT as previously reported.^[3] […] The reactions were incubated for 1 hour at room temperature and subsequently analyzed by fluorescence gel scanning.
A volume of 49 µL of each lysate was mixed with 1 µL of a 5 mM TMR-PO stock solution in DMSO and incubated for 1 hour at room temperature. Samples were resolved by SDS-PAGE and analyzed by fluorescence gel scanning.

C#CP(=O)(O)Oc1ccc(C[C@H](NC(=O)[C@H](CCC(=O)O)NC(=O)[C@H](CC(=O)O)NC(=O)[C@H](C)NC(=O)[C@H](CC(=O)O)NC(=O)CCCC[C@@H]2SC[C@@H]3NC(=O)N[C@@H]32)C(=O)N[C@@H](CC(C)C)C(=O)N[C@H](C(=O)N2CCC[C@H]2C(=O)N[C@@H](CCC(N)=O)C(=O)N[C@@H](CCC(N)=O)C(=O)NCC(N)=O)[C@@H](C)CC)cc1 [bio-PO] (Biotin-DADE[X1]LIPQQG-NH2)
decay in HEK293T cell lysate ([1]; 18 h): remains intact | remaining intact in HEK293T cell lysate ([1]; 18 h, inorganic phosphate internal standard): stayed unaltered

α-bromo(4-((N-5/6-TAMRA-aminomethyl)phenyl)methyl)phosphonic acid [TMR-BBP]
labeling pattern in HEK293T lysate (TMR-BBP) [2]: labeled many proteins across the whole proteome

C#CP(=O)(O)Nc1ccc(C[C@H](NC(=O)[C@H](CCC(=O)O)NC(=O)[C@H](CC(=O)O)NC(=O)[C@H](C)NC(=O)[C@H](CC(=O)O)NC(=O)CCCC[C@@H]2SC[C@@H]3NC(=O)N[C@@H]32)C(=O)N[C@@H](CC(C)C)C(=O)N[C@H](C(=O)N2CCC[C@H]2C(=O)N[C@@H](CCC(N)=O)C(=O)N[C@@H](CCC(N)=O)C(=O)NCC(N)=O)[C@@H](C)CC)cc1 [bio-PN] (Biotin-DADE[X2]LIPQQG-NH2)
remaining at 18 h, 1 mM ([1]; human, HEK293T cell lysate, inorganic phosphate internal standard, read-out: remaining intact in HEK293T cell lysate): 80% | metabolised at 18 h, 1 mM ([1]; human, HEK293T cell lysate, read-out: decay in HEK293T cell lysate): 20%
